Data reported in US20110166030A1, “Prediction of response to docetaxel therapy based on the presence of TMPRSSG2:ERG fusion in circulating tumor cells” (priority 2009, published 2011).

Tests used:
[1] = test system: metastatic prostate cancer; test: Response to therapy in metastatic androgen-independent prostate cancer patients (reduction in PSA levels); type: in vivo, human
Source text: Thus, disclosed herein is a method of expression profiling of gene of interest in CTCs using real time quantitative RT-PCR. Briefly, in a proof of concept, in total RNA isolated from circulating tumor cells of each of 40 metastatic prostate cancer patients gene expression profiles of 14 candidate genes were investigated by real time quantitative RT-PCR. […] Based on this application of RT-PCR based detection of the TMPRSS2-ERG fusion gene expression, patients are stratified for effective treatment with docetaxel chemotherapy, with an overall improvement in disease outcome and quality of life with very high specificity.
Briefly, the 40 subjects were recruited from the Cedars-Sinai Medical Center in Los Angeles. Appropriate IRB approvals were obtained prior to patient sample collection. The inclusion criteria consisted of: patient must be at least 18 years old and with clinical diagnosis of Stage IV (metastatic) prostate cancer; patients must provide written consent/authorization to participate in this study, no signs or symptoms of active infection, willing and able to comply with procedures required in this protocol.
All patients were receiving treatments at Cedars-Sinai Medical Center at Los Angeles and all have metastatic prostate cancers. […]

[2] = test system: castration resistant prostate cancer (CRPC); test: CEC, CTC, ET-1 and TF levels during docetaxel treatment of CRPC patients; type: in vivo, human
Method: Blood samples were collected from 231 patients with CRPC by venesection into 2×10 mL CellSave tubes (Veridex, LLC, Raritan, N.J.) and 1×6 mL serum tube in a multi-center prospective study. One CellSave tube was used to determine the number of CTC for prediction of OS. Results on CTC levels measured in this group have been previously published. The second collected CellSave tube was used to determine CEC numbers.
In order to assess a homogenous group of patients with respect to systemic therapy, we selected all who were scheduled to receive docetaxel or a docetaxel containing regimen (n=162) from the 231 patients. Treatment was continued until progression or unacceptable toxicity. Main eligibility criteria included age ≧18 years, pathological diagnosis of adenocarcinoma of the prostate, first or later line of chemotherapy, serum testosterone <1.7 nmol/L ([…]), Eastern Cooperative Oncology Group (ECOG) performance status 0-2, pretreatment serum PSA≧5 ng/mL, PSA progression (rises above a reference value) despite androgen deprivation therapy, and ability to sign informed consent. This study was approved by the local Institutional Medical Ethical Review Boards and is in agreement with the Helsinki declaration of 2000. Written informed consent was obtained from all patients prior to participation.
CEC and CTC counts were determined prior to initiation of chemotherapy and after 2-5 weeks (first follow-up draw) and 6-8 weeks (second follow-up draw) of treatment. Serum concentrations of ET-1 and TF were also determined at these same time points.
The CellTracks® AutoPrep® and CellTracks Analyzer II® Systems (both Veridex, LLC, Raritan, N.J.) were used to count CTC and CEC. CTC were defined as intact cells positive for the nuclear stain 4′ 6-diamidinophenylindole (DAPI), the epithelial cell adhesion molecule (EpCAM), and for cytokeratins 8, 18 and 19 that also lacked expression of the panleukocyte marker CD45. CEC were identified as intact cells positive for DAPI, CD146 and CD105 that also lacked expression of CD45.
The technical details of both assays have been published previously. […]
Serum concentrations (pg/mL) of ET-1 and TF-1 were determined by ELISA. […] Absorbance was read at 450 nm using a Titertek 212 MS microplate reader (Titertek, Huntsville, Ala.). […]
Longitudinal biomarker data were analyzed using a random effects linear regression model using the maximum likelihood random effects estimator (the “xtreg, mle” command in STATA). […] To determine a cutoff value for survival analysis of CEC numbers and serum concentrations of ET-1 and TF, patient data were first stratified according percentiles (p0-p25; p25-p50, p50-p75, and p75-p100), in which either their baseline value or the change between baseline values and those determined at 2-5 weeks would fall. […]

SMILES: CC(=O)O[C@@]12CO[C@@H]1C[C@H](O)[C@@]1(C)C(=O)[C@H](O)C3=C(C)[C@@H](OC(=O)[C@H](O)[C@@H](NC(=O)OC(C)(C)C)c4ccccc4)C[C@@](O)([C@@H](OC(=O)c4ccccc4)[C@H]21)C3(C)C [Docetaxel]
- Response to treatment, Number of Patients ([1]; 40 metastatic prostate cancer patients, Tax 14 patients, Tax + RAD 11 patients treated): 7
- Patients with T1E4 or T2E4 fusion gene expression in CTCs who responded to the therapy ([1]; five fusion-positive patients received Docetaxel-based therapy (Docetaxel or Docetaxel plus RAD001)): 5 patients
- Change in CTC numbers ([2]; after 2-5 weeks of treatment, cells/7.5 mL blood): decreased significantly
- Change in serum TF ([2]; after 6-8 weeks of therapy vs baseline and first follow-up draw, ELISA): significant decrease
- Serum concentrations of ET-1 during treatment ([2]; baseline, 2-5 and 6-8 weeks, ELISA): remained constant
- Change in CEC numbers vs baseline ([2]; first follow-up draw, 2-5 weeks after initiation of docetaxel, cells/4.0 mL blood): significant increase
